Laboratory results published in US11872219B2 (priority 2018, dated 2024).

Key:
[1] = systemically administered, Hirao et al. 2008, cited from earlier work
[2] = tested on: rats (monosodium-iodoacetate model of osteoarthritis); test: monosodium-iodoacetate model of osteoarthritis: locomotor activity (total distance travelled)
[3] = tested on: rats (monosodium-iodoacetate model of osteoarthritis); test: monosodium-iodoacetate model of osteoarthritis: lameness (dynamic weight bearing); settings: for lameness (% RL-% RR), early and late phase: intrathecal, 1 hr post-drug, vs intrathecal saline
[4] = tested on: rats (acute thermal nociception); test: tail flick assay, intrathecal administration; format: in vivo, rat; settings: intrathecal 0.1, 1 or 10 μg on successive days, 1 hr post-drug, vs baseline and saline
Procedure: As a general matter, rats underwent implantation of a catheter for drug delivery into the lumbo-thoracic intrathecal space. A polyurethane catheter was inserted through an incision in the atlanto-occipital membrane and passed caudally to the lumbar level. The distal part of the catheter was exteriorized and connected to a Pinport access port (Instech). Each rat received a standard protocol of anesthesia and antibiotics. Patency checks of the catheter system were performed once weekly following surgeries using 0.02 mL of physiological saline continuing until completion of the dosing period. The Pinport was wiped with alcohol prior to any injection. A minimum of 9-10 days was allowed between surgery and the first dosing in order for the rats to recover fully from surgical trauma. Intrathecal injection of test items always involved the following procedure: test items were administered by slow bolus injection via the Pinport connected to the intrathecal catheter. The dose volume for each animal was fixed at 10 μL and injected slowly over duration of ˜5 minutes. Following dose administration, the catheter was flushed with 20 μL of physiological saline.
A Tail-Flick Analgesia Meter (Columbus Instruments) was used. […] Afterwards, baseline tail-flick latency was measured using a lamp intensity adjusted such that the baseline tail-flick latencies were in the 6-8 second range. […]

human delta receptor = human delta receptor (Homo sapiens, UniProt P41143); settings: Ferrari et al. 2017; cited from earlier work
Sequence of human delta receptor (P41143 whole entry): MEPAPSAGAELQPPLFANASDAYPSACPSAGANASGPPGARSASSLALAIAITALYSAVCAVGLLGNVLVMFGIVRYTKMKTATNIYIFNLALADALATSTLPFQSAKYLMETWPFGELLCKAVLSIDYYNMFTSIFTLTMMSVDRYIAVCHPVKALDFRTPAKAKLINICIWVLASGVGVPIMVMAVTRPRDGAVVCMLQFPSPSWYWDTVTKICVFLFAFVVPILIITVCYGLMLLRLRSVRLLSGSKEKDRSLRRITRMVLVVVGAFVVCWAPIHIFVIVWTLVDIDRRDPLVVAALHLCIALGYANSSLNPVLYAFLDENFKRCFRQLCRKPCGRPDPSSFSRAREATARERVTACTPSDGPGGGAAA

Structure (SMILES) | anxiolytic effects [1] | inhibition of memory or motor function [1] | sedative side effects ([1]; appear only at much higher doses than the effective anxiolytic dose range) | locomotor activity (total distance travelled), early phase ([2]; intrathecal 1 μg, vs intrathecal vehicle) | locomotor activity (total distance travelled), late phase ([2]; intrathecal 0.1, 1 or 10 μg, 0.1 and 10 μg reached statistical significance vs vehicle) | lameness, early phase ([3]; intrathecal 1 μg, Days 2-4, vs saline) | lameness, late phase, dose-response ([3]; intrathecal 0.1, 1 or 10 μg, Days 22-24) | lameness, late phase, 1 and 10 μg ([3]; intrathecal 1 and 10 μg, Days 22-24, vs saline) | lameness (% RL-% RR), early and late phase [3] | tail-flick latency [4] | activation of the human delta receptor (human delta receptor) | lameness, last two days of the late phase ([3]; intrathecal 15 μg, vs saline)
CC1(N2CCC(n3c([C@@H]4CCCNC4)nc4ccccc43)CC2)CCCCCCC1 [MCOPPB, 1-[1-(1-methylcyclooctyl)-4-piperidinyl]-2-[(3R)-3-piperidinyl]-1H-benzimidazole] | potent anxiolytic effects | no inhibition of memory or motor function | only slight sedative side effects | did not change locomotor activity | appeared to restore locomotor activity to the level displayed by both treatment groups during the early phase | sufficient to reduce lameness significantly | dose-related effects | significantly reduced lameness | significantly reduced lameness levels | significantly, and dose-dependently, increased TF latencies | only a small amount | 
CN1CC[C@]23c4c5ccc(O)c4O[C@H]2[C@@H](O)C=C[C@H]3[C@H]1C5.O=S(=O)(O)O [morphine sulfate, reference compound] |  |  |  |  |  |  |  |  | significantly reduced lameness levels |  |  | statistical significance was not quite achieved
